Data as given in paper PMC5218480 (PLoS ONE, 2017).

Test system: MV-4-11 cells
Assay: Gene expression microarray analysis (Affymetrix PrimeView) and GSEA
Assay type: cell-based, human
Set-up: RFU PODN (11730768_x_at) / Fold change /veh PODN (11730768_x_at) / RFU LINC00158 (11744669_a_at) / Fold change /veh LINC00158 (11744669_a_at) / RFU DUSP10 (11751237_a_at) / Fold change /veh DUSP10 (11751237_a_at) / RFU ID3 (11757404_x_at) / Fold change /veh ID3 (11757404_x_at) / RFU PLEKHG5 (11737974_s_at) / Fold change /veh PLEKHG5 (11737974_s_at) / RFU LRRC4B (11730491_at) / Fold change /veh LRRC4B (11730491_at) / RFU GIMAP4 (11747438_a_at) / Fold change /veh GIMAP4 (11747438_a_at) / RFU KRT8 (11758183_x_at) / Fold change /veh KRT8 (11758183_x_at) / RFU CNN1 (11734310_a_at) / Fold change /veh CNN1 (11734310_a_at) / RFU VPS37D (11726825_at) / Fold change /veh VPS37D (11726825_at) / RFU C10orf10 (11716522_x_at) / Fold change /veh C10orf10 (11716522_x_at) / RFU KIR2DL2 /// KIR2DL4 /// KIR2DL5A /// KIR2DL5B /// KIR2DS1 /// KIR2DS2 /// KIR2DS3 /// KIR2DS4 /// KIR3DL3 /// KIR3DL3 /// KIR3DS1 (11738374_at) / Fold change /veh KIR2DL2 /// KIR2DL4 /// KIR2DL5A /// KIR2DL5B /// KIR2DS1 /// KIR2DS2 /// KIR2DS3 /// KIR2DS4 /// KIR3DL3 /// KIR3DL3 /// KIR3DS1 (11738374_at) / RFU C1QL1 (11718748_at) / Fold change /veh C1QL1 (11718748_at) / RFU TMPRSS4 (11747572_a_at) / Fold change /veh TMPRSS4 (11747572_a_at) / RFU HAMP (11756126_x_at) / Fold change /veh HAMP (11756126_x_at) / RFU RNFT2 (11725882_a_at) / Fold change /veh RNFT2 (11725882_a_at) / RFU NR4A2 (11747474_a_at) / Fold change /veh NR4A2 (11747474_a_at) / RFU ABCC12 (11746883_a_at) / Fold change /veh ABCC12 (11746883_a_at) / RFU TMEM136 (11760407_x_at) / Fold change /veh TMEM136 (11760407_x_at) / RFU CLDN22 /// WWC2 (11732394_at) / Fold change /veh CLDN22 /// WWC2 (11732394_at) / RFU HLA-DPB1 (11760878_x_at) / Fold change /veh HLA-DPB1 (11760878_x_at) / RFU SPINT1 (11716480_a_at) / Fold change /veh SPINT1 (11716480_a_at) / RFU GAP43 (11754022_s_at) / Fold change /veh GAP43 (11754022_s_at) / RFU A4GNT (11735810_at) / Fold change /veh A4GNT (11735810_at) / RFU PRB3 (11715151_x_at) / Fold change /veh PRB3 (11715151_x_at) / RFU TUBB4B (11761932_at) / Fold change /veh TUBB4B (11761932_at) / RFU CAPN14 (11732068_a_at) / Fold change /veh CAPN14 (11732068_a_at) / RFU TMCC2 (11721928_a_at) / Fold change /veh TMCC2 (11721928_a_at) / RFU IRGQ (11745062_a_at) / Fold change /veh IRGQ (11745062_a_at) / RFU FAM174B (11720279_a_at) / Fold change /veh FAM174B (11720279_a_at) / RFU TMPRSS4 (11748680_a_at) / Fold change /veh TMPRSS4 (11748680_a_at) / RFU FAM212B (11763350_a_at) / Fold change /veh FAM212B (11763350_a_at) / RFU PLEKHG5 (11743358_a_at) / Fold change /veh PLEKHG5 (11743358_a_at) / RFU ZSCAN30 (11745921_a_at) / Fold change /veh ZSCAN30 (11745921_a_at) / RFU CMKLR1 (11741424_a_at) / Fold change /veh CMKLR1 (11741424_a_at) / RFU LOC101060620 /// MAPK8IP1 (11723275_at) / Fold change /veh LOC101060620 /// MAPK8IP1 (11723275_at) / RFU SPTSSB (11747773_x_at) / Fold change /veh SPTSSB (11747773_x_at) / RFU PRSS12 (11739890_at) / Fold change /veh PRSS12 (11739890_at) / RFU BIN1 (11741810_x_at) / Fold change /veh BIN1 (11741810_x_at) / RFU WNT11 (11732464_a_at) / Fold change /veh WNT11 (11732464_a_at) / RFU C10orf10 (11716521_a_at) / Fold change /veh C10orf10 (11716521_a_at) / RFU C5orf56 (11738089_at) / Fold change /veh C5orf56 (11738089_at) / RFU CYB561 (11721691_x_at) / Fold change /veh CYB561 (11721691_x_at) / RFU ANKRD19P (11752326_a_at) / Fold change /veh ANKRD19P (11752326_a_at) / RFU OR2T12 /// OR2T33 /// OR2T8 (11738714_s_at) / Fold change /veh OR2T12 /// OR2T33 /// OR2T8 (11738714_s_at) / RFU VCAN (11748164_a_at) / Fold change /veh VCAN (11748164_a_at) / RFU JSRP1 (11732532_at) / Fold change /veh JSRP1 (11732532_at) / RFU KRTAP10-11 (11738290_x_at) / Fold change /veh KRTAP10-11 (11738290_x_at) / RFU MYO3A (11730013_a_at) / Fold change /veh MYO3A (11730013_a_at) / RFU EBF3 (11725865_a_at) / Fold change /veh EBF3 (11725865_a_at) / RFU CAMK2N1 (11719241_x_at) / Fold change /veh CAMK2N1 (11719241_x_at) / RFU C5orf56 (11738088_a_at) / Fold change /veh C5orf56 (11738088_a_at) / RFU OLFML3 (11715873_a_at) / Fold change /veh OLFML3 (11715873_a_at) / RFU LOC100653217 /// NTM (11731650_a_at) / Fold change /veh LOC100653217 /// NTM (11731650_a_at) / RFU MAPK11 (11762145_a_at) / Fold change /veh MAPK11 (11762145_a_at) / RFU FIZ1 (11724087_x_at) / Fold change /veh FIZ1 (11724087_x_at) / RFU OASL (11726364_x_at) / Fold change /veh OASL (11726364_x_at) / RFU SOX15 (11748057_x_at) / Fold change /veh SOX15 (11748057_x_at) / RFU CD79A (11719716_a_at) / Fold change /veh CD79A (11719716_a_at) / RFU HIST1H1D (11736915_at) / Fold change /veh HIST1H1D (11736915_at) / RFU CASKIN2 (11723855_a_at) / Fold change /veh CASKIN2 (11723855_a_at) / RFU LOC730098 (11760151_x_at) / Fold change /veh LOC730098 (11760151_x_at) / RFU OR4N2 (11742367_at) / Fold change /veh OR4N2 (11742367_at) / RFU PRRT2 (11749266_a_at) / Fold change /veh PRRT2 (11749266_a_at) / RFU SNX32 (11753110_a_at) / Fold change /veh SNX32 (11753110_a_at) / RFU CDHR5 (11726645_a_at) / Fold change /veh CDHR5 (11726645_a_at) / RFU RCAN1 (11760418_a_at) / Fold change /veh RCAN1 (11760418_a_at) / RFU FAM167A (11723789_a_at) / Fold change /veh FAM167A (11723789_a_at) / RFU FAM26E (11764081_at) / Fold change /veh FAM26E (11764081_at) / RFU ISYNA1 (11749810_s_at) / Fold change /veh ISYNA1 (11749810_s_at) / RFU ACY1 (11761880_at) / Fold change /veh ACY1 (11761880_at) / RFU 11764098_at / Fold change /veh 11764098_at / RFU SAMD14 (11745864_x_at) / Fold change /veh SAMD14 (11745864_x_at) / RFU NPB (11741838_a_at) / Fold change /veh NPB (11741838_a_at) / RFU TMPRSS6 (11731388_a_at) / Fold change /veh TMPRSS6 (11731388_a_at) / RFU KRTAP10-2 (11738614_at) / Fold change /veh KRTAP10-2 (11738614_at) / RFU ARHGAP8 /// PRR5-ARHGAP8 (11727945_x_at) / Fold change /veh ARHGAP8 /// PRR5-ARHGAP8 (11727945_x_at) / RFU KRTAP5-7 /// NADSYN1 (11734609_at) / Fold change /veh KRTAP5-7 /// NADSYN1 (11734609_at) / RFU RASL12 (11751679_a_at) / Fold change /veh RASL12 (11751679_a_at) / RFU CDKN2B (11736163_a_at) / Fold change /veh CDKN2B (11736163_a_at) / RFU PRF1 (11729649_at) / Fold change /veh PRF1 (11729649_at) / RFU, ZNF638 /// ZNF638-IT1 / Fold change vs veh, ZNF638 /// ZNF638-IT1 / RFU, PANK3 / Fold change vs veh, PANK3 / RFU, SH3YL1 / Fold change vs veh, SH3YL1 / RFU, ZEB2 / Fold change vs veh, ZEB2 / RFU, NRIP1 / Fold change vs veh, NRIP1 / RFU, PTTG1IP / Fold change vs veh, PTTG1IP / RFU, CAPN2 / Fold change vs veh, CAPN2 / RFU, MED14 / Fold change vs veh, MED14 / RFU, SNORA58 / Fold change vs veh, SNORA58 / RFU, C1orf63 / Fold change vs veh, C1orf63 / RFU, LRRFIP1 / Fold change vs veh, LRRFIP1 / RFU, NDUFAF7 / Fold change vs veh, NDUFAF7 / RFU, SLC12A2 / Fold change vs veh, SLC12A2 / RFU, IBTK / Fold change vs veh, IBTK / RFU, ESF1 / Fold change vs veh, ESF1 / Fold change vs veh, TMEM50B / RFU, TAOK1 / Fold change vs veh, TAOK1 / RFU, ACBD3 / Fold change vs veh, ACBD3 / RFU, TMA16 / Fold change vs veh, TMA16 / RFU, RWDD3 / Fold change vs veh, RWDD3 / RFU, BCAT1 / Fold change vs veh, BCAT1 / RFU, EDEM3 / Fold change vs veh, EDEM3 / RFU, TMEM33 / Fold change vs veh, TMEM33 / RFU, WDR75 / Fold change vs veh, WDR75 / RFU, AHCTF1 / Fold change vs veh, AHCTF1 / RFU, TFRC / Fold change vs veh, TFRC / RFU, ZDHHC17 / Fold change vs veh, ZDHHC17 / RFU, NOM1 / Fold change vs veh, NOM1 / RFU, ARL8B / Fold change vs veh, ARL8B / RFU, ZBTB11 / Fold change vs veh, ZBTB11 / RFU, TAMM41 / Fold change vs veh, TAMM41 / RFU, KIAA1704 /// LOC100996395 / Fold change vs veh, KIAA1704 /// LOC100996395 / RFU, ING1 / Fold change vs veh, ING1 / RFU, TRMT61B / Fold change vs veh, TRMT61B / RFU, FUBP3 / Fold change vs veh, FUBP3 / RFU, TP53 / Fold change vs veh, TP53 / RFU, TNKS2 / Fold change vs veh, TNKS2 / RFU, ZFP14 / Fold change vs veh, ZFP14 / RFU, ACTR2 / Fold change vs veh, ACTR2 / RFU, PPP3R1 / Fold change vs veh, PPP3R1 / RFU, PIK3R1 / Fold change vs veh, PIK3R1 / RFU, HNRNPA1 / Fold change vs veh, HNRNPA1 / RFU, RNF170 / Fold change vs veh, RNF170 / RFU, ZNF28 / Fold change vs veh, ZNF28 / RFU, RNGTT / Fold change vs veh, RNGTT / RFU, OGT / Fold change vs veh, OGT / RFU, BRD1 / Fold change vs veh, BRD1 / RFU, MARS / Fold change vs veh, MARS / RFU, ZNF655 / Fold change vs veh, ZNF655 / RFU, FAHD1 / Fold change vs veh, FAHD1 / RFU, BDP1 / Fold change vs veh, BDP1 / RFU, LRRCC1 / Fold change vs veh, LRRCC1 / RFU, ARID1A / Fold change vs veh, ARID1A / RFU, ZNF146 / Fold change vs veh, ZNF146 / RFU, ZNF330 / Fold change vs veh, ZNF330 / RFU, GPN3 / Fold change vs veh, GPN3 / RFU, C9orf123 / Fold change vs veh, C9orf123 / RFU, N4BP2L2 / Fold change vs veh, N4BP2L2 / RFU, ARFIP1 / Fold change vs veh, ARFIP1 / RFU, FAM179B / Fold change vs veh, FAM179B / RFU, BCL10 / Fold change vs veh, BCL10 / RFU, UHRF1BP1L / Fold change vs veh, UHRF1BP1L / RFU, BET1 / Fold change vs veh, BET1 / RFU, CNOT2 / Fold change vs veh, CNOT2 / RFU, ZNF268 / Fold change vs veh, ZNF268 / Fold change vs veh, ZNF507 / RFU, DGCR2 / Fold change vs veh, DGCR2 / RFU, WDSUB1 / Fold change vs veh, WDSUB1 / Fold change vs veh, HSP90B1 /// MIR3652 / RFU, ADSS / Fold change vs veh, ADSS / RFU, GK / Fold change vs veh, GK / RFU, ZNF148 / Fold change vs veh, ZNF148 / RFU, TAF9 / Fold change vs veh, TAF9 / RFU, SLC1A5 / Fold change vs veh, SLC1A5 / RFU, SLMO2 / Fold change vs veh, SLMO2 / RFU, ABCC4 / Fold change vs veh, ABCC4 / RFU, LOC101060439 /// RAP1B / Fold change vs veh, LOC101060439 /// RAP1B / RFU, RFX7 / Fold change vs veh, RFX7 / RFU, GTPBP10 / Fold change vs veh, GTPBP10 / RFU, CNEP1R1 / Fold change vs veh, CNEP1R1 / RFU, BIVM-ERCC5 /// ERCC5 / Fold change vs veh, BIVM-ERCC5 /// ERCC5 / RFU, ILF3 / Fold change vs veh, ILF3 / RFU 11762660_at / Fold change /veh 11762660_at / RFU VCAN (11757783_s_at) / Fold change /veh VCAN (11757783_s_at) / RFU DDX43 (11728927_at) / Fold change /veh DDX43 (11728927_at) / RFU KRT8 (11758188_x_at) / Fold change /veh KRT8 (11758188_x_at) / RFU NKD1 (11759106_at) / Fold change /veh NKD1 (11759106_at) / RFU SRD5A1 (11742802_a_at) / Fold change /veh SRD5A1 (11742802_a_at) / RFU TPSAB1 /// TPSB2 (11721975_s_at) / Fold change /veh TPSAB1 /// TPSB2 (11721975_s_at) / RFU GSTM3 (11746129_a_at) / Fold change /veh GSTM3 (11746129_a_at) / RFU IL23R (11737362_x_at) / Fold change /veh IL23R (11737362_x_at) / RFU TMEM51 (11727254_a_at) / Fold change /veh TMEM51 (11727254_a_at) / RFU PIWIL2 (11732686_x_at) / Fold change /veh PIWIL2 (11732686_x_at) / RFU ORM1 (11744905_x_at) / Fold change /veh ORM1 (11744905_x_at) / RFU CCDC152 (11743942_at) / Fold change /veh CCDC152 (11743942_at) / RFU ECM1 (11717891_a_at) / Fold change /veh ECM1 (11717891_a_at) / RFU IL23R (11748794_a_at) / Fold change /veh IL23R (11748794_a_at) / RFU TNFAIP8L3 (11732012_x_at) / Fold change /veh TNFAIP8L3 (11732012_x_at) / RFU MBOAT4 (11741988_at) / Fold change /veh MBOAT4 (11741988_at) / RFU 11764193_at / Fold change /veh 11764193_at / RFU TMEM53 (11763286_at) / Fold change /veh TMEM53 (11763286_at) / RFU MAGEB2 (11727129_at) / Fold change /veh MAGEB2 (11727129_at) / RFU TMEM200A (11744735_a_at) / Fold change /veh TMEM200A (11744735_a_at) / RFU CCDC152 (11751479_a_at) / Fold change /veh CCDC152 (11751479_a_at) / RFU FAM211A (11726209_a_at) / Fold change /veh FAM211A (11726209_a_at) / RFU RGS16 (11746705_a_at) / Fold change /veh RGS16 (11746705_a_at) / RFU VCAN (11755009_s_at) / Fold change /veh VCAN (11755009_s_at) / RFU RHOB (11743442_s_at) / Fold change /veh RHOB (11743442_s_at) / RFU RGS16 (11720943_a_at) / Fold change /veh RGS16 (11720943_a_at) / RFU RGS16 (11720944_at) / Fold change /veh RGS16 (11720944_at) / RFU, VPS4B / Fold change vs veh, VPS4B / RFU, CREB1 / Fold change vs veh, CREB1 / RFU, DNAJC13 / Fold change vs veh, DNAJC13 / RFU, GNAQ / Fold change vs veh, GNAQ / RFU, CDK5R1 / Fold change vs veh, CDK5R1 / RFU, ZRANB3 / Fold change vs veh, ZRANB3 / RFU, CUL4A / Fold change vs veh, CUL4A / RFU, CCNY / Fold change vs veh, CCNY / RFU, UFL1 / Fold change vs veh, UFL1 / RFU, COG3 / Fold change vs veh, COG3 / RFU, DIAPH2 / Fold change vs veh, DIAPH2 / RFU, SKA2 / Fold change vs veh, SKA2 / RFU, AFF3 / Fold change vs veh, AFF3 / RFU, LMF1 / Fold change vs veh, LMF1 / RFU, IPO11 / Fold change vs veh, IPO11 / RFU, DFFB / Fold change vs veh, DFFB / RFU, FOXP1 / Fold change vs veh, FOXP1 / RFU, CARD8 / Fold change vs veh, CARD8 / RFU, STRN3 / Fold change vs veh, STRN3 / RFU, ADK / Fold change vs veh, ADK / RFU, RASSF2 / Fold change vs veh, RASSF2 / RFU, WIPF1 / Fold change vs veh, WIPF1 / RFU, LARP1B / Fold change vs veh, LARP1B / RFU, RASA1 / Fold change vs veh, RASA1 / RFU, RB1 / Fold change vs veh, RB1 / RFU, PPFIA1 / Fold change vs veh, PPFIA1 / RFU, MAT2A / Fold change vs veh, MAT2A / RFU, CCT5 / Fold change vs veh, CCT5 / RFU, WDR92 / Fold change vs veh, WDR92 / RFU, CUX1 / Fold change vs veh, CUX1 / RFU, TTC7A / Fold change vs veh, TTC7A / RFU, TMEM135 / Fold change vs veh, TMEM135 / RFU, DEPTOR / Fold change vs veh, DEPTOR / RFU, CPM / Fold change vs veh, CPM / RFU, DNAJB6 / Fold change vs veh, DNAJB6 / RFU, CACNA2D3 / Fold change vs veh, CACNA2D3 / RFU, DTX4 / Fold change vs veh, DTX4 / RFU, TFCP2 / Fold change vs veh, TFCP2 / RFU, GMCL1 /// GMCL1P1 / Fold change vs veh, GMCL1 /// GMCL1P1 / RFU, AEBP2 / Fold change vs veh, AEBP2 / RFU, SNHG1 /// SNORD22 /// SNORD25 /// SNORD26 /// SNORD27 /// SNORD28 /// SNORD29 /// SNORD31 / Fold change vs veh, SNHG1 /// SNORD22 /// SNORD25 /// SNORD26 /// SNORD27 /// SNORD28 /// SNORD29 /// SNORD31 / Fold change (Aza/veh), C12orf56 (ProbeSet 11735607_a_at) / Fold change (ACY-1035/veh), C12orf56 (ProbeSet 11735607_a_at) / Fold change (Aza/veh), FGFR1OP (ProbeSet 11751329_s_at) / Fold change (ACY-1035/veh), FGFR1OP (ProbeSet 11751329_s_at) / Fold change (Aza/veh), VPS36 (ProbeSet 11739960_a_at) / Fold change (ACY-1035/veh), VPS36 (ProbeSet 11739960_a_at) / RFU SYPL1 (11715823_x_at) / Fold change /veh SYPL1 (11715823_x_at) / RFU IGFBP7 (11715501_s_at) / Fold change /veh IGFBP7 (11715501_s_at) / RFU REEP3 (11722064_at) / Fold change /veh REEP3 (11722064_at) / RFU IGLL1 (11728026_x_at) / Fold change /veh IGLL1 (11728026_x_at): dose or concentration left out as unconfirmed
Conditions: ProbeSet 11721611_a_at; LIST D

Nc1ccc(-c2cccs2)cc1NC(=O)c1ccc2c(c1)cc(C1CC1)n2CCN1CCOCC1 [ACY-1035]
RFU, IPO11: 82.15 RFU
